Reference: patent US7915293B2, “Ubiquitin ligase inhibitors” (Rigel Pharmaceuticals, Inc., priority 2003, dated 2011)

Legend:
Set-up in all cases: key: “+” indicates that the compound exibits inhibitory activity; “−” indicates that low or no inhibitory activity was observed
[1] = biological target: E3 (His-APC11/APC2-"APC") (Homo sapiens, UniProt Q9NYG5+Q9UJX6); test: Plate-based E3 ligase assay (APC FLAG), auto-ubiquitination; type: biochemical; conditions: for APC Flag 8 pt: 8 concentrations tested
Outline: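 His-APC11/APC2 auto-ubiquitination was run in casein-blocked nickel plates for 1 h at room temperature, with E1 at 5 ng/well, UbcH5c at 20 ng/well and APC at 100 ng/well. Buffer was 62.5 mM Tris pH 7.6, 3 mM MgCl2, 1 mM DTT, 2.5 mM ATP and Flag-ubiquitin at 100 ng/well. Detection used anti-Flag/HRP chemiluminescence, and IC50 was typically from 6 or 8 concentrations versus a DMSO control.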

A549 cells = test: Cell proliferation assay, photographic image analysis of proliferation, apoptosis and death (PAD assay), A549; type: cell-based; conditions: 6 concentrations tested
Method: (§1) A549 (ATCC# CCL-185), HeLa (ATCC# CCL-2), HCT116 (ATCC# CCL-247), and H1299 (ATCC# CRL-5803) cells were maintained in T175 flasks following the ATCC recommended media and handling procedures. Flasks reaching approximately 70% confluency were trypsinized and resuspended in RPMI media (Cell-Gro catalog number 10-040-CM) modified to contain 5% FBS, 100 ug/mlPen/Strep (Cell-Gro catalog number 30-002-CL), and 0.3 mg/ml L-Glutamine (Cell-Gro catalog number 25-003-CL). A 20,000 cells/ml solution was made for plating. Cells were plated in black Packard 96 well plates by placing 100 μl per well (2,000 cells per well).
(§2) Compounds and additional media were added 24 hours after cell plating. A compound master plate was created with concentrations 500 times greater than the final concentration added to the cells. All compound testing was done in duplicate using 6.3 fold dilutions starting with 10 mM. All outside wells (and 4 internal wells) were DMSO controls. Taxol and at least one additional control were run on all plates. Three microliters of the compound master plate were added to deep well blocks containing 750 μl of RPMI media. One hundred microliters were transferred from the compound/media deep well blocks to the plated cells resulting in a 500 fold dilution of the compounds. Cells were grown at 37° C., 5% CO2 for 48 hours.
(§3) Cells to be analyzed by photography were fixed and stained. One hundred microliters of media were removed and 100 μl of 9.3% […] was added to each well. Plates were left on the benchtop for 45 minutes. A staining solution containing 1.55 μl of 1 mg/ml DAPI added to 18.75 ml PBS was warmed for 15 minutes at 37° C. The cells were aspirated prior to washing with 100 μl of PBS. Seventy microliters of PBS were aspirated and 170 μl of the DAPI solution were added to each well of fixed cells. Plates were left at room temperature for one hour then aspirated and washed twice with 100 μl of PBS. The stained cells were left at 4° C. for a minimum of 16 hours before photographic analysis with Array Scan II (Cellomics). Analysis of the photographic images to determine numbers of live cells (proliferation), apoptotic cells and dead cells, were according to the methods described in U.S. Provisional Patent Application Ser. No. 60/406,714, which incorporated herein in its entirety.

HeLa cells = test: Cell proliferation assay, photographic image analysis of proliferation, apoptosis and death (PAD assay), HeLa; type: cell-based; conditions: 6 concentrations tested
Method: as §1, §2, §3

Chain of E3 (His-APC11/APC2-"APC") (Q9NYG5 whole entry): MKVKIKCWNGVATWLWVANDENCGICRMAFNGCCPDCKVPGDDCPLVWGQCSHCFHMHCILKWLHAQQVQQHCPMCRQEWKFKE
Chain of E3 (His-APC11/APC2-"APC") (Q9UJX6 whole entry): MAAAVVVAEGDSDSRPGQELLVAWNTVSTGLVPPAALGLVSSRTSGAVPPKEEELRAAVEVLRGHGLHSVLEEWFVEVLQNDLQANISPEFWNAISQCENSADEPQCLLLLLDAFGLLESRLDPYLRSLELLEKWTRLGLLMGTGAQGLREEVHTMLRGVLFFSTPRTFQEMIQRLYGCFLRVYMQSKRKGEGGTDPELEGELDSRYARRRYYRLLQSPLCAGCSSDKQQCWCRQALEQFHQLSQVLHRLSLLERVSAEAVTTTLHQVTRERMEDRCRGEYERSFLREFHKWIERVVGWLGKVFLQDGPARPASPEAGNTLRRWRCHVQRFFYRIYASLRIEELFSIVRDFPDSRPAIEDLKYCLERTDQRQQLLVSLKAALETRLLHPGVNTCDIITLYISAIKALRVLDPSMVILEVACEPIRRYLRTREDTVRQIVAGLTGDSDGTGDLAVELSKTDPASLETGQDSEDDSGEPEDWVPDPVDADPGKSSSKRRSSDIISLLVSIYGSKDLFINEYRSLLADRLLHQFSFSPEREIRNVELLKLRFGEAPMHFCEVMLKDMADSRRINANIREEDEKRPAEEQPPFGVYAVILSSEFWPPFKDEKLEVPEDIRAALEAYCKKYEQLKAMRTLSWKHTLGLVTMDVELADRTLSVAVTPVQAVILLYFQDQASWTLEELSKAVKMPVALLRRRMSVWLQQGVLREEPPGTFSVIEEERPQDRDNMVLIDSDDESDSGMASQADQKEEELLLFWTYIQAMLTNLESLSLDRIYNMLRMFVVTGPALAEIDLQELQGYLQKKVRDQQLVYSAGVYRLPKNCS

SMILES	APC Flag 8 pt [1]	PAD Assay, A549 6 pt (A549 cells)	PAD Assay, HELA 6 pt (HeLa cells)	APC Flag (2 pt) ([1]; 2 concentrations tested)
O=C(Nc1ccc(Oc2ccc(F)cc2)c(Br)c1)c1cccc(Cl)c1 [Compound 303]	−	+	+	
O=[N+]([O-])c1ccc(Oc2c(Cl)cc(S(=O)(=O)Nc3ccccn3)cc2Cl)c(Cl)c1 [Compound 216, 3,5-dichloro-4-(2-chloro-4-nitrophenoxy)-N-pyridin-2-ylbenzenesulfonamide]		+	+	− (2 pt)
COc1ccc(S(=O)(=O)Nc2ccc(Oc3cc(C(F)(F)F)ccc3Cl)cc2F)cc1 [Compound 287, N-{4-[2-chloro-5-(trifluoromethyl)phenoxy]-2-fluorophenyl}-4-methoxybenzenesulfonamide]	+	+	+	
O=S(=O)(Nc1ccc(Oc2cc(C(F)(F)F)ccc2Cl)cc1F)c1cc(Cl)ccc1Cl [Example 277, 2,5-dichloro-N-{4-[2-chloro-5-(trifluoro-methyl)phenoxy]-2-fluorophenyl}benzene-sulfonamide]	+	+	+	
O=[N+]([O-])c1ccc(Oc2ccc(NS(=O)(=O)c3cc(Cl)ccc3Cl)cc2)cc1 [Compound 273, 2,5-dichloro-N-[4-(4-nitrophenoxy)phenyl]benzenesulfonamide]	+	+	−	
O=[N+]([O-])c1ccc(Oc2c(Cl)cc(S(=O)(=O)Nc3ccc4cn[nH]c4c3)cc2Cl)c(Cl)c1 [Example 171, 3,5-dichloro-4-(2-chloro-4-nitrophenoxy)-N-1H-indazol-6-ylbenzenesulfonamide]	−	+	−	
O=S(=O)(Nc1cc(Cl)cnc1Cl)c1ccc(Oc2ncc(C(F)(F)F)cc2Cl)cc1 [Compound 257, 4-{[3-chloro-5-(trifluoromethyl)pyridin-2-yl]oxy}-N-(2,5-dichloropyridin-3-yl) benzenesulfonamide]	+	+	+	
O=[N+]([O-])c1ccc(Oc2c(Cl)cc(S(=O)(=O)Nc3ccc(Oc4cc(C(F)(F)F)ccc4Cl)cc3F)cc2Cl)c(Cl)c1 [Example 290, 3,5-dichloro-4-(2-chloro-4-nitrophenoxy)-N-{4-[2-chloro-5-(trifluoromethyl)phenoxy]-2-fluorophenyl}benzenesulfonamide]	+	+	+	
O=C(Nc1cccc(Cl)c1)N1CCC(Oc2ccccc2C(F)(F)F)CC1 [Compound 305, N-(3-chlorophenyl)-4-(2-(trifluoromethyl)phenoxy)piperidine-1-carboxamide]		+	+	
O=S(=O)(Nc1ccc(Oc2cc(C(F)(F)F)ccn2)cc1)c1cccc(C(F)(F)F)c1 [Example 298, 3-(trifluoromethyl)-N-(4-(4-(trifluoromethyl)pyridin-2-yloxy)phenyl)benzenesulfonamide]		+	+	
O=C(Nc1ccccc1C(F)(F)F)N1CCC(Oc2ccccc2C(F)(F)F)CC1 [Example 306, 4-(2-(trifluoromethyl)phenoxy)-N-(2-(trifluoromethyl)phenyl)piperidine-1-carboxamide]		−	−	
O=S(=O)(Nc1ccc(Oc2ncc(C(F)(F)F)cc2Cl)cc1)c1cccc(Cl)c1 [Compound 294, 3-chloro-N-(4-(3-chloro-5-(trifluoromethyl)pyridyn-2-yloxy)phenyl)benzenesulfonamide]		+	+	
O=S(=O)(Nc1ccc(Oc2cc(C(F)(F)F)ccn2)cc1)c1cccc(Cl)c1 [Example 297, 3-chloro-N-(4-(4-(trifluoromethyl)pyridin-2-yloxy)phenyl)benzenesulfonamide]		+	−	
O=S(=O)(Nc1ccc(Oc2ncc(C(F)(F)F)cc2Cl)cc1)c1cccc(C(F)(F)F)c1 [Example 295, N-(4-(3-chloro-5-(trifluoromethyl)pyridin-2-yloxy)phenyl)-3-(trifluoromethyl)benzenesulfonamide]		+	+	
O=S(=O)(c1ccccc1C(F)(F)F)N1CCC(Oc2ccccc2C(F)(F)F)CC1 [Example 302, 4-(2-(trifluoromethyl)phenoxy)-1-(2-(trifluoromethyl)phenylsulfonyl)piperidine]		+	+	
N=C(NS(=O)(=O)c1cc(Cl)c(Oc2ccc([N+](=O)[O-])cc2)c(Cl)c1)c1cccnc1 [Example 60, N-{[3,5-dichloro-4-(4-nitrophenoxy)phenyl]sulfonyl}pyridine-3-carboximidamide]	−	+		
O=S(=O)(c1cccc(C(F)(F)F)c1)N1CCC(Oc2ccccc2C(F)(F)F)CC1 [Example 301, 4-(2-(trifluoromethyl)phenoxy)-1-(3-(trifluoromethyl)phenylsulfonyl)piperidine]		+	+	
N=C(NS(=O)(=O)c1cc(Cl)c(Oc2ccc([N+](=O)[O-])cc2Cl)c(Cl)c1)c1ccc(Cl)cc1 [Example 25, 4-chloro-N-{[3,5-dichloro-4-(2-chloro-4-nitrophenoxy)phenyl]sulfonyl}benzene-carboximidamide]	+	−		
O=S(=O)(Nc1ccc(Oc2ncccn2)c(Cl)c1)c1cccc(Cl)c1 [Compound 292, 3-chloro-N-[3-chloro-4-(pyrimidin-2-yloxy)phenyl]benzenesulfonamide]		+	−	
N=C(NS(=O)(=O)c1cc(Cl)c(Oc2ccc([N+](=O)[O-])cc2Cl)c(Cl)c1)c1ccccn1 [Example 27, N-{[3,5-dichloro-4-(2-chloro-4-nitrophenoxy)phenyl]sulfonyl}pyridine-2-carboximidamide]	−	−		
O=[N+]([O-])c1ccc(Oc2c(Cl)cc(S(=O)(=O)Nc3ccc(F)cc3F)cc2Cl)c(Cl)c1 [Example 17, 3,5-dichloro-4-(2-chloro-4-nitrophenoxy)-N-(2,4-difluorophenyl)benzene-sulfonamide]	+	−		
O=S(=O)(Nc1ccc(F)cc1C(F)(F)F)c1ccc(Oc2ncc(C(F)(F)F)cc2Cl)cc1 [Example 271, 4-{[3-chloro-5-(trifluoromethyl)pyridin-2-yl]oxy}-N-[4-fluoro-2-(trifluoromethyl)phenyl]benzenesulfonamide]		+	+	
O=S(=O)(c1cccc(Cl)c1)N1CCC(Oc2ccccc2C(F)(F)F)CC1 [Example 300, 1-(3-chlorophenylsulfonyl)-4-(2-(trifluoromethyl)phenoxy)piperidine]		+	+	
O=S(=O)(Nc1ccc(Oc2cc(C(F)(F)F)ccn2)cc1)c1ccccc1C(F)(F)F [Example 299, 2-(trifluoromethyl)-N-(4-(4-(trifluoromethyl)pyridin-2-yloxy)phenyl)benzenesulfonamide]		+	−	
CC1CN(S(=O)(=O)c2cc(Cl)c(Oc3ccc([N+](=O)[O-])cc3Cl)c(Cl)c2)CC(C)O1 (stereo not drawn) [Example 18, 4-{[3,5-dichloro-4-(2-chloro-4-nitrophenoxy)phenyl]sulfonyl}-2,6-dimethylmorpholine]	−	−		
N=C(NS(=O)(=O)c1cc(Cl)c(Oc2ccc([N+](=O)[O-])cc2Cl)c(Cl)c1)c1ccncc1 [Example 29, N-{[3,5-dichloro-4-(2-chloro-4-nitrophenoxy)phenyl]sulfonyl}pyridine-4-carboximidamide]	+	+		
